Experimental data published in patent EP4796125A1, “TREATMENT OF PATIENT WITH NEGATIVE P53 GENE MUTATION, POSITIVE KRAS GENE MUTATION AND POSITIVE BRCA MUTATION” (Ascentawits Pharmaceuticals, Ltd., priority 2023, dated 2025).

Assays:
[1] = system: Ser15-p53, Ser20-p53, Total p53, MDM2, and p21 proteins in H460 cells; test: WB detection of p53 protein pathway (Ser15-p53, Ser20-p53, Total p53, MDM2, p21); format: cell-based; details: second experiment: 0.1, 0.3, 1 nM AST-3424 ± 5 µM Nutlin-3, 24 hours, AST-3424 dose-dependent (Figure 16)
Procedure: • 1) H460 cell suspension was added to a 24-well plate, with a cell density of 80000 cells/well and 995 µL of medium per well. • 2) The cells were cultured overnight in a 37°C, 5% CO2 incubator. • 3) Compound Treatment
24 hours after cell plating, according to the protocol, the experimental groups for each cell line were as follows: • Monotherapy: 24 hours after cell plating, 5 µL of test compounds at different concentrations was added: 0.5% DMSO, 0.1 nM AST-3424, and 5 µM Nutlin-3. The plate was gently shaken to ensure even mixing, and then placed in a 37°C, 5% CO2 incubator. • Combination therapy: 24 hours after cell plating, 5 µL of test compounds at different concentrations was added. After pre-treatment with 5 µM Nutlin-3 for 2 hours, 0.1 nM AST-3424 was added. The plate was gently shaken to ensure even mixing, and then placed in a 37°C, 5% CO2 incubator.
4) Cell protein lysates were collected for WB detection.
• Adding 0.1 nM AST-3424 for pre-treatment for 2 hours, and then adding 5 µM Nutlin-3 for co-treatment for 22 hours; • Adding 0.3 nM AST-3424 for pre-treatment for 2 hours, and then adding 5 µM Nutlin-3 for co-treatment for 22 hours; • Adding 1 nM AST-3424 for pre-treatment for 2 hours, and then adding 5 µM Nutlin-3 for co-treatment for 22 hours. […]

HPAF-II cells [2] = test: Cell cycle G2/M arrest, PI staining and flow cytometry; format: cell-based, human; details: HPAF-II cells with p53 pathogenic mutations; 0.1 nM AST-3424, 5 µM Nutlin-3 (Figure 9)
Procedure: (§1) • 1) H460/HPAF-II cell suspensions were added to a 24-well plate, with a cell density of 100000 cells/well and 995 µL of medium per well. • 2) The cells were cultured overnight in a 37°C, 5% CO2 incubator. • 3) Compound Treatment
(§2) 24 hours after cell plating, according to the protocol, the experimental groups for each cell line were as follows: Monotherapy: 24 hours after cell plating, 5 µL of test compounds at different concentrations was added: 1% DMSO, 5 µM Nutlin-3, and 0.1 nM AST-3424. The plate was gently shaken to ensure even mixing, and then placed in a 37°C, 5% CO2 incubator.
• Cells were pretreated with AST-3424 for 2 hours, and then co-treatment with Nutlin-3 for 24 hours; • cells were pretreated with Nutlin-3 for 2 hours, and then co-treatment with AS -3424 for 24 hours; and • cells were co-treated with AST-3424 and Nutlin-3 for 24 hours. • 4) The cells were digested, centrifuged at 1000 g at 4°C, washed once with pre-cooled PBS, centrifuged at 1000 g at 4°C, and fixed with 1 mL of pre-cooled 70% ethanol at - 20°C overnight. • 5) The cells were centrifuged at 3000 g at 4°C, washed once with pre-cooled PBS (phosphate buffer), and centrifuged at 3000g at 4°C. PI staining solution was prepared. […] The cells were detected using a flow cytometer on the same day, and the proportions of cells in different cell cycle phases was analyzed using FlowJo.

H460 cells [3] = test: In vitro proliferation inhibition experiment (CTG, 72 hours), Example 20; format: cell-based
Procedure: (§3) • 1) H460 and HPAF-II cell suspensions were added to a 96-well plate (100 µL per well), with cell densities of 2000 cells/well and 20000 cells/well, respectively. • 2) The cells were cultured overnight in a 37°C, 5% CO2 incubator. • 3) Compound Treatment
(§4) Combination therapy: 24 hours after cell plating, each well was supplemented with 99 µL of growth medium. Then, 0.5 µL of Nutlin-3 or RITA was added to each well. The plate was gently shaken to ensure even mixing, and then placed in an incubator for 2 hours. Then, 0.5 µL of test compounds at different concentrations was added. The plate was gently shaken to ensure even mixing, and then placed in a 37°C, 5% CO2 incubator.
(§5) Monotherapy: 24 hours after cell plating, each well was supplemented with 99.5 µL of growth medium. Then, 0.5 µL of test compounds at different concentrations was added. The plate was gently shaken to ensure even mixing, and then placed in a 37°C, 5% CO2 incubator. • 4) The cell plate was placed in the incubator for 72 hours. • 5) The cell plate to be tested was placed at room temperature and equilibrated for 30 minutes, and 100 µL of medium was discarded from each well. • 6) 25 µL of CTG reagent was added to each well, placed on a fast shaker to shake for 2 minutes, and placed at room temperature for 30 minutes (protected from light). • 7) The chemiluminescence signal value was read using a multifunctional microplate reader with a reading time of 1000 ms, and the corresponding inhibition rate data were calculated.

H460 cells [4] = test: Cell cycle G2/M arrest, PI staining and flow cytometry; format: cell-based; details: 0.1 nM AST-3424, 5 µM Nutlin-3, 24 hours, combination: AST-3424 added first (Figure 9)
Procedure: as §1, §2
• Cells were pretreated with AST-3424 for 2 hours, and then co-treatment with Nutlin-3 for 24 hours; • cells were pretreated with Nutlin-3 for 2 hours, and then co-treatment with AS -3424 for 24 hours; and • cells were co-treated with AST-3424 and Nutlin-3 for 24 hours. • 4) The cells were digested, centrifuged at 1000 g at 4°C, washed once with pre-cooled PBS, centrifuged at 1000 g at 4°C, and fixed with 1 mL of pre-cooled 70% ethanol at - 20°C overnight. • 5) The cells were centrifuged at 3000 g at 4°C, washed once with pre-cooled PBS (phosphate buffer), and centrifuged at 3000g at 4°C. PI staining solution was prepared. The cells were stained at 37°Cfor 30 minutes (protected from light), and stored in an ice bath (protected from light). The cells were detected using a flow cytometer on the same day, and the proportions of cells in different cell cycle phases was analyzed using FlowJo.
The remaining operations were similar to those of the above experiment, and the compound treatment was as follows: […]

HPAF-II cells [5] = test: In vitro proliferation inhibition experiment (CTG, 72 hours), Example 20; format: cell-based, human; details: Table 14, HPAF-II
Procedure: as §3, §4, §5

[6] = system: Total P53, MDM2, P21, AKR1C3 proteins in H460 cells; test: WB detection ± Nutlin-3 in H460 and H460 P53 KO cells; format: cell-based; details: wild-type H460 cells; 5 µM Nutlin-3, 24h; compared with the H460 wild-type DMSO group (Figures 33, 34)
Procedure: • 1) H460 and H460 P53 KO cell suspensions were added to 24-well plates, with a cell density of 100000 cells/well and 995 µL of medium per well. • 2) The cells were cultured overnight in a 37°C, 5% CO2 incubator. • 3) Compound Treatment
24 hours after cell plating, according to the protocol, the experimental groups for each cell line were as follows: H460 WT non-treatment group, H460 P53 KO # 1 non-treatment group, H460 P53 KO # 7 non-treatment group, H460 P53 KO # 8 non-treatment group, H460 P53 KO # 12 non-treatment group, H460 WT 0.1% DMSO treatment group, H460 WT 5 µM Nutlin-3 treatment group, H460 P53 KO # 1 5 µM Nutlin-3 treatment group, H460 P53 KO # 7 5 µM Nutlin-3 treatment group, H460 P53 KO # 8 5 µM Nutlin-3 treatment group, and H460 P53 KO # 12 5 µM Nutlin-3 treatment group.
Monotherapy: 24 hours after cell plating, 5 µL of test compounds at different concentrations was added. […]
• 1) The cell plates were taken out and the medium supernatant was discarded. […] The cells were scraped off with a cell scraper, lysed on ice for 30 min, and centrifuged at 14000 rpm at 4°C for 10 min. • 2) Protein quantification was performed using the BCA assay. […] After the incubation, the membranes were washed three times with TBST (10 min per wash).The ECL luminescence solutions A and B (SuperSignal West Femto Maximum Sensitivity) were mixed and added to the membranes blotting dry. […]

Structure (SMILES): COc1ccc(C2=N[C@@H](c3ccc(Cl)cc3)[C@@H](c3ccc(Cl)cc3)N2C(=O)N2CCNC(=O)C2)c(OC(C)C)c1 [Nutlin-3]
- phosphorylation of p53 (Ser15-p53 and Ser20-p53), protein expression of total-p53, expression of MDM2 and p21 [1]: upregulates
- cell cycle (G0/G1, S, G2/M phases) (HPAF-II cells [2]): has no effect
- Inhibition rate result / % (H460 cells [3]; Table 12, H460, group 1: AST 0.5 nM, Nutlin-3 0.25 µM, AST + Nutlin-3 0.5+0.25): 11.8%
- Inhibition rate result / % (H460 cells [3]; Table 12, H460, group 2: AST 0.5 nM, Nutlin-3 0.5 µM, AST + Nutlin-3 0.5+0.5): 17.27%
- Inhibition rate result / % (H460 cells [3]; Table 12, H460, group 3: AST 0.5 nM, Nutlin-3 1 µM, AST + Nutlin-3 0.5+1): 18.3%
- Inhibition rate result / % (H460 cells [3]; Table 12, H460, group 4: AST 1.5 nM, Nutlin-3 0.25 µM, AST + Nutlin-3 1.5+0.25): 11.8%
- Inhibition rate result / % (H460 cells [3]; Table 12, H460, group 5: AST 1.5 nM, Nutlin-3 0.5 µM, AST + Nutlin-3 1.5+0.5): 17.27%
- Inhibition rate result / % (H460 cells [3]; Table 12, H460, group 6: AST 1.5 nM, Nutlin-3 1 µM, AST + Nutlin-3 1.5+1): 18.3%
- cell cycle (G0/G1, S, G2/M phases) (H460 cells [4]): does not significantly alter the cell cycle
- Inhibition rate result / % (HPAF-II cells [5]; group 1: AST 20 nM, Nutlin-3 7.5 µM, AST + Nutlin-3 20+7.5): 8.54%
- Inhibition rate result / % (HPAF-II cells [5]; group 2: AST 20 nM, Nutlin-3 10 µM, AST + Nutlin-3 20+10): 52.46%
- Inhibition rate result / % (HPAF-II cells [5]; group 3: AST 20 nM, Nutlin-3 15 µM, AST + Nutlin-3 20+15): 73.93%
- Inhibition rate result / % (HPAF-II cells [5]; group 4: AST 60 nM, Nutlin-3 7.5 µM, AST + Nutlin-3 60+7.5): 8.54%
- Inhibition rate result / % (HPAF-II cells [5]; group 5: AST 60 nM, Nutlin-3 10 µM, AST + Nutlin-3 60+10): 52.46%
- Inhibition rate result / % (HPAF-II cells [5]; group 6: AST 60 nM, Nutlin-3 15 µM, AST + Nutlin-3 60+15): 73.93%
- expressions of MDM2, P53, P21, and AKR1C3 proteins [6]: all upregulated
